Source: PubChem BioAssay (NCI)
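At the GI50, growth is halved. Definition used: TGI = concentration required for complete inhibition of growth.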

What was measured:
Test in all cases: inhibition of tumour cell growth, NCI panel, 384-well format
[1] = test system: HL-60(TB) leukemia
[2] = test system: MALME-3M melanoma
[3] = test system: HCC-2998 colon
[4] = test system: LOX IMVI melanoma
[5] = test system: ACHN renal
[6] = test system: A498 renal
[7] = test system: U251 glioblastoma
[8] = test system: MDA-MB-231 breast
[9] = test system: NCI-H522 lung
[10] = test system: UO-31 renal
[11] = test system: HCT-15 colon
[12] = test system: MCF7 breast
[13] = test system: OVCAR-5 ovarian
[14] = test system: HOP-62 NSCLC
[15] = test system: SW-620 colon
[16] = test system: SK-MEL-28 melanoma
[17] = test system: RXF 393 renal
[18] = test system: SK-MEL-5 melanoma
[19] = test system: IGROV1 ovarian
[20] = test system: SR leukemia
[21] = test system: A549 NSCLC
[22] = test system: OVCAR-4 ovarian
[23] = test system: MOLT-4 leukemia
[24] = test system: BT-549 breast
[25] = test system: UACC-257 melanoma
[26] = test system: CCRF-CEM leukemia
[27] = test system: SF-539 CNS
[28] = test system: MDA-MB-435 melanoma
[29] = test system: UACC-62 melanoma
[30] = test system: HCT-116 colon
[31] = test system: HT29 colon
[32] = test system: OVCAR-3 ovarian
[33] = test system: KM12 colon
[34] = test system: SNB-19 CNS
[35] = test system: TK-10 renal
[36] = test system: NCI-H460 NSCLC
[37] = test system: RPMI-8226 leukemia
[38] = test system: DU-145 prostate
[39] = test system: NCI-H322M lung
[40] = test system: MDA-MB-468 breast
[41] = test system: SF-295 CNS
[42] = test system: 786-0 renal
[43] = test system: SK-MEL-2 melanoma
[44] = test system: NCI-H226 lung
[45] = test system: PC-3 prostate
[46] = test system: COLO 205 colon
[47] = test system: SN12C renal
[48] = test system: K-562 leukemia
[49] = test system: SK-OV-3 ovarian
[50] = test system: T-47D breast
[51] = test system: OVCAR-8 ovarian
[52] = test system: NCI-H23 lung
[53] = test system: HOP-92 NSCLC
[54] = test system: NCI/ADR-RES ovarian
[55] = test system: SNB-75 CNS
[56] = test system: M14 melanoma
[57] = test system: CAKI-1 renal
[58] = test system: HS 578T breast
[59] = test system: EKVX NSCLC
[60] = test system: SF-268 CNS

In the case of Cc1sc2c(c1C)C(c1ccc(Cl)cc1)=N[C@@H](CC(=O)Nc1ccc(OCCOCCOCCOCCNc3cccc4c3C(=O)N(C3CCC(=O)NC3=O)C4=O)cc1)c1nnc(C)n1-2 (some centres undefined), the GI50 [1] is reported as < 0.01 µM, the TGI [1] is reported as < 0.01 µM and the GI50 [2] is reported as 0.133 µM. The TGI [2] was 0.326 µM, the GI50 [3] was < 0.01 µM and the TGI [3] was 0.0217 µM. For the same compound, the GI50 [4] was 0.0684 µM, the TGI [4] was 0.203 µM and the GI50 [5] was 0.534 µM. For the same compound, the TGI [5] was > 100 µM, the GI50 [6] was 0.166 µM and the TGI [6] was > 100 µM. For the same compound, the GI50 [7] was 0.186 µM, the TGI [7] was 80.1 µM and the GI50 [8] was < 0.01 µM. The TGI [8] was 0.024 µM, the GI50 [9] was 0.0371 µM and the TGI [9] was 0.182 µM. For the same compound, the GI50 [10] was 0.305 µM, the TGI [10] was > 100 µM and the GI50 [11] was 0.121 µM. For the same compound, the TGI [11] was 0.278 µM, the GI50 [12] was < 0.01 µM and the TGI [12] was 0.0403 µM. For the same compound, the GI50 [13] was 0.0428 µM, the TGI [13] was 1.47 µM and the GI50 [14] was 0.0224 µM. For the same compound, the TGI [14] was 0.0755 µM, the GI50 [15] was 0.0335 µM and the TGI [15] was > 100 µM. It also gave a GI50 [16] of 0.13 µM, a TGI [16] of 0.799 µM and a GI50 [17] of 0.0349 µM. For the same compound, the TGI [17] was 0.0962 µM, the GI50 [18] was 0.03 µM and the TGI [18] was 0.118 µM. The GI50 [19] was 0.0265 µM, the TGI [19] was 0.123 µM and the GI50 [20] was 0.0194 µM. The TGI [20] was 0.069 µM, the GI50 [21] was 0.0361 µM and the TGI [21] was > 100 µM. The GI50 [22] was 0.0152 µM, the TGI [22] was 0.0341 µM and the GI50 [23] was < 0.01 µM. For the same compound, the TGI [23] was 0.0198 µM, the GI50 [24] was < 0.01 µM and the TGI [24] was < 0.01 µM. For the same compound, the GI50 [25] was 0.179 µM, the TGI [25] was 28.2 µM and the GI50 [26] was < 0.01 µM. It also gave a TGI [26] of 0.0119 µM, a GI50 [27] of 0.0904 µM and a TGI [27] of 1.12 µM. The GI50 [28] was 0.0316 µM, the TGI [28] was 0.166 µM and the GI50 [29] was 0.0347 µM. It also gave a TGI [29] of 0.162 µM, a GI50 [30] of 0.0568 µM and a TGI [30] of 13.6 µM. The GI50 [31] was 0.106 µM, the TGI [31] was 0.434 µM and the GI50 [32] was 0.0691 µM. The TGI [32] was 0.431 µM, the GI50 [33] was 0.0374 µM and the TGI [33] was > 100 µM. For the same compound, the GI50 [34] was 0.0516 µM, the TGI [34] was > 100 µM and the GI50 [35] was 0.19 µM. For the same compound, the TGI [35] was > 100 µM, the GI50 [36] was 0.38 µM and the TGI [36] was > 100 µM. The GI50 [37] was < 0.01 µM, the TGI [37] was < 0.01 µM and the GI50 [38] was 0.624 µM. The TGI [38] was 16.1 µM, the GI50 [39] was 0.0164 µM and the TGI [39] was 0.0789 µM. For the same compound, the GI50 [40] was 0.0152 µM, the TGI [40] was 0.0399 µM and the GI50 [41] was 0.131 µM. For the same compound, the TGI [41] was 0.55 µM, the GI50 [42] was 0.0444 µM and the TGI [42] was 0.81 µM. The GI50 [43] was < 0.01 µM, the TGI [43] was 0.0255 µM and the GI50 [44] was 0.0315 µM. The TGI [44] was 0.131 µM, the GI50 [45] was 0.0153 µM and the TGI [45] was > 100 µM. For the same compound, the GI50 [46] was 0.0107 µM, the TGI [46] was 0.0446 µM and the GI50 [47] was 0.0376 µM. For the same compound, the TGI [47] was > 100 µM, the GI50 [48] was 0.054 µM and the TGI [48] was 87.1 µM. For the same compound, the GI50 [49] was 0.0765 µM, the TGI [49] was 0.228 µM and the GI50 [50] was < 0.01 µM. For the same compound, the TGI [50] was < 0.01 µM, the GI50 [51] was < 0.01 µM and the TGI [51] was 0.0187 µM. For the same compound, the GI50 [52] was 0.182 µM, the TGI [52] was 0.443 µM and the GI50 [53] was 0.0253 µM. For the same compound, the TGI [53] was 0.291 µM, the GI50 [54] was 21.8 µM and the TGI [54] was > 100 µM.
For O=C(N[C@@H](Cc1coc2ccccc12)B(O)O)[C@@H]1C[C@H]2CC[C@@H]1O2, the GI50 [1] was 0.355 µM, the TGI [1] was 1.36 µM and the GI50 [2] was 1.17 µM. For the same compound, the TGI [2] was 3.19 µM, the GI50 [3] was 4.45 µM and the TGI [3] was 20.9 µM. For the same compound, the GI50 [4] was 3.99 µM, the TGI [4] was 16.8 µM and the GI50 [5] was 1.09 µM. For the same compound, the TGI [5] was > 100 µM, the GI50 [6] was 1.62 µM and the TGI [6] was 5.91 µM. The GI50 [7] was 14.8 µM, the TGI [7] was 52.5 µM and the GI50 [8] was 4.86 µM. It also gave a TGI [8] of 23.3 µM, a GI50 [9] of 2 µM and a TGI [9] of 4.74 µM. It also gave a GI50 [10] of 3.36 µM, a TGI [10] of 13.4 µM and a GI50 [11] of 4.26 µM. For the same compound, the TGI [11] was 15.3 µM, the GI50 [12] was 1.68 µM and the TGI [12] was > 100 µM. For the same compound, the GI50 [13] was 8.44 µM, the TGI [13] was > 100 µM and the GI50 [14] was 3.87 µM. The TGI [14] was 17.1 µM, the GI50 [15] was 1.81 µM and the TGI [15] was 3.83 µM. For the same compound, the GI50 [16] was 1.33 µM, the TGI [16] was 4.17 µM and the GI50 [17] was 1.22 µM. It also gave a TGI [17] of 2.91 µM, a GI50 [18] of 2.36 µM and a TGI [18] of 7.59 µM. The GI50 [19] was 18.6 µM, the TGI [19] was 92.1 µM and the GI50 [20] was 0.219 µM. The TGI [20] was 0.605 µM, the GI50 [21] was 10.7 µM and the TGI [21] was > 100 µM. The GI50 [22] was 7.3 µM, the TGI [22] was 60.6 µM and the GI50 [23] was 0.277 µM. For the same compound, the TGI [23] was 1.13 µM, the GI50 [24] was 2.26 µM and the TGI [24] was 5.49 µM. It also gave a GI50 [25] of 1.44 µM, a TGI [25] of 5.25 µM and a GI50 [55] of 2.99 µM. For the same compound, the TGI [55] was 11.2 µM, the GI50 [26] was 0.197 µM and the TGI [26] was 0.504 µM. It also gave a GI50 [27] of 1.51 µM, a TGI [27] of 2.92 µM and a GI50 [28] of 1.45 µM. It also gave a TGI [28] of 2.99 µM, a GI50 [30] of 2.08 µM and a TGI [30] of 8.46 µM. For the same compound, the GI50 [31] was 1.83 µM, the TGI [31] was 4.44 µM and the GI50 [32] was 1.38 µM. For the same compound, the TGI [32] was 3.8 µM, the GI50 [33] was 5.64 µM and the TGI [33] was 23.2 µM. For the same compound, the GI50 [34] was 4.7 µM, the TGI [34] was 23.1 µM and the GI50 [35] was 1.84 µM. For the same compound, the TGI [35] was 4.86 µM, the GI50 [36] was 16.7 µM and the TGI [36] was > 100 µM. It also gave a GI50 [37] of 0.173 µM, a TGI [37] of 0.359 µM and a GI50 [38] of 4.28 µM. The TGI [38] was > 100 µM, the GI50 [56] was 2.73 µM and the TGI [56] was 9.07 µM. For the same compound, the GI50 [57] was 3.24 µM, the TGI [57] was > 100 µM and the GI50 [39] was 44.8 µM. For the same compound, the TGI [39] was > 100 µM, the GI50 [40] was 2.29 µM and the TGI [40] was 9.43 µM. For the same compound, the GI50 [41] was 1.49 µM, the TGI [41] was 4.35 µM and the GI50 [42] was 2.74 µM. For the same compound, the TGI [42] was 13.9 µM, the GI50 [44] was 0.163 µM and the TGI [44] was 0.439 µM. The GI50 [45] was 27.6 µM, the TGI [45] was > 100 µM and the GI50 [46] was 21.2 µM. For the same compound, the TGI [46] was > 100 µM, the GI50 [47] was 10.7 µM and the TGI [47] was > 100 µM. The GI50 [48] was 7.21 µM, the TGI [48] was > 100 µM and the GI50 [49] was 4.71 µM. The TGI [49] was 55.7 µM, the GI50 [50] was 5.11 µM and the TGI [50] was 45.8 µM. For the same compound, the GI50 [51] was 30.9 µM, the TGI [51] was > 100 µM and the GI50 [58] was 1.8 µM. For the same compound, the TGI [58] was 3.69 µM, the GI50 [59] was 6.89 µM and the TGI [59] was 91.9 µM. It also gave a GI50 [52] of 3.7 µM, a TGI [52] of 27.3 µM and a GI50 [53] of 13.9 µM. The TGI [53] was 77.7 µM, the GI50 [54] was 34.8 µM and the TGI [54] was > 100 µM. For the same compound, the GI50 [60] was 2.45 µM and the TGI [60] was 7.43 µM.
